Some test systems named below: Pseudomonas aeruginosa; Bacillus subtilis; Klebsiella pneumoniae.
What all share (assay): ≥ marks a high value that may be exact or a test limit, other limits are often not marked, values filed in µg/mL are converted to µM
Assay [1] has as its system Escherichia coli ATCC 8739.
In assay [2] the test system is Staphylococcus aureus ATCC 25923.
For assay [3], the system named is Pseudomonas aeruginosa KCTC 1637.
The test system of assay [4] is Salmonella typhimurium KCTC 1926.
The test system of assay [5] is Staphylococcus epidermidis KCTC 1917.
Assay [6] deals with Staphylococcus aureus KCTC 1621.
Assay [7] concerns Bacillus subtilis KCTC 3068.
Assay [8] relates to Escherichia coli KCTC 1682.
Assay [9] concerns Staphylococcus aureus ATCC 43300.
The subject of assay [10] is Staphylococcus aureus ATCC 6538.
Assay [11] deals with Escherichia coli ATCC 25726.
In assay [12] the test system is Staphylococcus epidermidis.
Assay [13] deals with Escherichia coli ATCC 25922.
In assay [14] the test system is Pseudomonas aeruginosa ATCC 27853.
Assay [15] concerns Candida albicans ATCC 90028.

Values after ≈ are worked out from the molar mass of the structure shown.

As for `CC[C@H](C)[C@H](NC(=O)[C@H](CCCCN)NC(=O)[C@H](CO)NC(=O)[C@H](CO)NC(=O)[C@H](CC(C)C)NC(=O)[C@H](CCCCN)NC(=O)[C@H](CCCCN)NC(=O)[C@H](CC(C)C)NC(=O)[C@H](CC(C)C)NC(=O)[C@H](CCCCN)NC(=O)[C@H](CCC(N)=O)NC(=O)[C@H](Cc1ccc(O)cc1)NC(=O)[C@H](Cc1ccccc1)NC(=O)[C@H](CCC(N)=O)NC(=O)[C@H](CO)NC(=O)[C@H](CCC(=O)O)NC(=O)[C@H](CCCN=C(N)N)NC(=O)[C@H](CC(N)=O)NC(=O)[C@@H]1CCCN1)C(=O)O` [PNRESQFYQKLLKKLSSKI], the MIC (in general, the lowest concentration that inhibits growth of the organism) was not below 111 µM in assay [1] and 111 µM (≈ 256 µg/mL) in assay [2].

`CC[C@H](C)[C@H](NC(=O)[C@H](CCCCN)NC(=O)[C@H](Cc1c[nH]c2ccccc12)NC(=O)[C@H](Cc1ccccc1)NC(=O)[C@H](CC(C)C)NC(=O)[C@H](CCCCN)NC(=O)[C@H](CCCCN)NC(=O)[C@@H](N)CCCCN)C(=O)N1CCC[C@H]1C(=O)N[C@@H](CCCCN)C(=O)N[C@@H](Cc1ccccc1)C(=O)N[C@@H](CC(C)C)C(=O)N[C@@H](Cc1cnc[nH]1)C(=O)N[C@@H](CC(C)C)C(=O)N[C@@H](C)C(=O)N[C@@H](CCCCN)C(=O)N[C@@H](CCCCN)C(=O)N[C@@H](Cc1ccccc1)C(N)=O` [KKKLFWKIPKFLHLAKKF]: the MIC in assay [3] was determined as 2 µM (≈ 4.6 µg/mL); in assay [4], 1 µM (≈ 2.3 µg/mL); in assay [5] it was 1 µM (≈ 2.3 µg/mL); in [6], 2 µM (≈ 4.6 µg/mL); in [7], 1 µM (≈ 2.3 µg/mL); in assay [8], 2 µM (≈ 4.6 µg/mL).

As to `CC[C@H](C)[C@H](NC(=O)[C@H](CCCCN)NC(=O)[C@@H](NC(=O)[C@H](CO)NC(=O)[C@H](CC(N)=O)NC(=O)[C@H](Cc1c[nH]c2ccccc12)NC(=O)[C@H](CC(C)C)NC(=O)CN)[C@@H](C)CC)C(=O)N[C@@H](C)C(=O)NCC(=O)N[C@@H](CCCCN)C(=O)N[C@@H](CCCCN)C(=O)N[C@@H](CC(C)C)C(=O)N[C@@H](Cc1ccccc1)C(=O)N[C@H](C(=O)N[C@@H](CC(N)=O)C(=O)N[C@H](C(=O)N[C@@H](CC(C)C)C(=O)N[C@@H](CC(=O)O)C(=O)N[C@@H](CCCCN)C(=O)N[C@H](C(=O)N[C@@H](CCCN=C(N)N)C(=O)N[C@H]1CSSC[C@@H](C(=O)N[C@@H](CCCCN)C(=O)N[C@H](C(=O)N[C@@H](CO)C(=O)N2CCC[C@H]2C(=O)N[C@@H](CC(=O)O)C(=O)N[C@H](C(=O)N[C@@H](CCC(=O)O)C(=O)O)C(C)C)[C@@H](C)O)NC(=O)CNC(=O)CNC(=O)[C@H](C)NC(=O)[C@H](C(C)C)NC(=O)[C@H](CCCCN)NC1=O)[C@@H](C)CC)C(C)C)C(C)C` [GLWNSIKIAGKKLFVNVLDKIRCKVAGGCKTSPDVE], the MIC in assay [1] was 6.3 µM (≈ 24.5 µg/mL); in assay [9], 100 µM (≈ 389 µg/mL); in [10], 6.3 µM (≈ 24.5 µg/mL).

For `CC[C@H](C)[C@@H]1NC(=O)[C@@H]2CCCN2C(=O)[C@H](CC(C)C)NC(=O)[C@@H]2CCCN2C(=O)[C@H]([C@@H](C)CC)NC(=O)[C@H](Cc2c[nH]c3ccccc23)NC(=O)[C@H](CO)NC(=O)[C@@H](NC(=O)[C@@H](NC(=O)[C@@H](N)CCCN=C(N)N)C(C)C)CSSC[C@@H](C(=O)N[C@@H](Cc2cnc[nH]2)C(N)=O)NC1=O` [RVCSWIPLPICH], the values for the MIC in assay [2] and in assay [11] were 250 µM (≈ 355 µg/mL) and not below 500 µM, respectively.

In the case of `CC(C)C[C@H](NC(=O)[C@H](CCCCN)NC(=O)[C@H](Cc1c[nH]c2ccccc12)NC(=O)[C@H](C)N)C(=O)N[C@@H](Cc1ccccc1)C(=O)N[C@@H](CC(=O)O)C(=O)N[C@@H](CC(=O)O)C(=O)NCC(=O)N[C@H](C(=O)O)C(C)C` [AWKLFDDGV], the MIC was 30 µM (≈ 31.5 µg/mL) against Pseudomonas aeruginosa, 30 µM (≈ 31.5 µg/mL) in assay [1], 30 µM (≈ 31.5 µg/mL) against Bacillus subtilis and not below 60 µM in [12].

In the case of `CC[C@H](C)[C@H](NC(=O)[C@H](CCCCN)NC(=O)[C@H](CC(C)C)NC(=O)CNC(=O)[C@H](CC(C)C)NC(=O)[C@H](CO)NC(=O)[C@H](CCCN=C(N)N)NC(=O)[C@H](CC(C)C)NC(=O)CNC(=O)CNC(C)=O)C(=O)N[C@@H](CC(C)C)C(=O)N[C@@H](CC(C)C)C(=O)N[C@@H](C)C(=O)N[C@@H](Cc1c[nH]c2ccccc12)C(=O)N[C@@H](CCCCN)C(=O)N[C@@H](CCCCN)C(=O)N[C@@H](Cc1ccc(O)cc1)C(=O)NCC(N)=O` [GGLRSLGLKILLAWKKYG], the MIC in [1] was not below 100 µM; in assay [13], more than 100 µM; in assay [14] it was more than 100 µM; in the assay on Klebsiella pneumoniae it was more than 100 µM.

The compound `CC[C@H](C)[C@H](NC(=O)[C@H](CCCCN)NC(=O)[C@H](CO)NC(=O)[C@H](C)NC(=O)[C@@H](NC(=O)[C@H](CCCN=C(N)N)NC(=O)[C@H](CC(=O)O)NC(=O)[C@H](CC(C)C)NC(=O)[C@H](CC(C)C)NC(=O)[C@H](CCCCN)NC(=O)[C@H](CC(C)C)NC(=O)[C@@H](NC(=O)[C@@H](NC(=O)[C@H](CC(N)=O)NC(=O)[C@H](CC(N)=O)NC(=O)[C@@H](NC(=O)[C@H](CCCCN)NC(=O)[C@H](CCCCN)NC(=O)[C@@H]1CCCN1)[C@@H](C)CC)[C@@H](C)O)[C@@H](C)CC)C(C)C)C(=O)O` [PKKINNTILKLLDRVASKI] came in with an MIC in assay [1] of 29.6 µM (≈ 64 µg/mL).

In the case of `CC(C)C[C@H](NC(=O)[C@H](Cc1ccc(O)cc1)NC(=O)[C@H](Cc1cnc[nH]1)NC(=O)[C@@H](NC(=O)[C@H](CC(C)C)NC(=O)[C@H](C)NC(=O)[C@H](C)NC(=O)[C@H](CCCCN)NC(=O)CNC(=O)[C@@H](NC(=O)[C@H](Cc1cnc[nH]1)NC(=O)[C@H](CCCCN)NC(=O)[C@H](C)NC(=O)[C@@H](NC(=O)[C@H](Cc1cnc[nH]1)NC(=O)[C@H](C)NC(=O)[C@H](C)NC(=O)[C@H](CCCCN)NC(=O)[C@H](CCCCN)NC(=O)[C@H](Cc1ccccc1)NC(=O)[C@H](Cc1ccccc1)NC(=O)[C@H](CO)NC(=O)CNC(=O)[C@H](Cc1c[nH]c2ccccc12)NC(=O)CN)C(C)C)C(C)C)[C@@H](C)O)C(=O)O` [GWGSFFKKAAHVAKHVGKAALTHYL], the MIC in assay [3] came to 2 µM (≈ 5.45 µg/mL); in assay [4], 2 µM (≈ 5.45 µg/mL); in [5] it was 1 µM (≈ 2.73 µg/mL); in [6], 1 µM (≈ 2.73 µg/mL); in assay [7], 4 µM (≈ 10.9 µg/mL); in [8], 4 µM (≈ 10.9 µg/mL).

For `CC[C@H](C)[C@H](NC(=O)[C@H](CCCCN)NC(=O)[C@@H](NC(=O)[C@@H](NC(=O)[C@H](CCCCN)NC(=O)CNC(=O)[C@H](CC(C)C)NC(=O)[C@@H](NC(=O)[C@H](CO)NC(=O)CNC(=O)[C@H](C)NC(=O)[C@H](CCCCN)NC(=O)[C@H](CO)NC(=O)[C@H](C)NC(=O)[C@H](CCSC)NC(=O)CN)C(C)C)[C@@H](C)CC)[C@@H](C)O)C(=O)N[C@@H](C)C(=O)N[C@@H](CC(C)C)C(=O)NCC(=O)N[C@@H](C)C(=O)N[C@@H](CC(C)C)C(N)=O` [GMASKAGSVLGKITKIALGAL], the figures for the MIC in [15], in [2] and in [11] were not below 50 µM, 100 µM (≈ 199 µg/mL) and 12.5 µM (≈ 24.8 µg/mL), respectively.

`CC[C@H](C)[C@H](NC(=O)[C@H](C)NC(=O)[C@@H](NC(=O)[C@H](C)NC(=O)CNC(=O)[C@H](CCCCN)NC(=O)[C@@H](NC(=O)[C@H](C)NC(=O)CNC(=O)[C@H](CCCCN)NC(=O)[C@H](CC(C)C)NC(=O)[C@@H](NC(=O)[C@H](CCCCN)NC(=O)[C@H](CCCCN)NC(=O)[C@H](CC(C)C)NC(=O)[C@@H](NC(=O)[C@H](CC(=O)O)NC(=O)[C@H](CCCCN)NC(=O)[C@@H](NC(=O)[C@H](CCC(=O)O)NC(=O)[C@@H]1CCCN1C(=O)[C@H](CO)NC(=O)[C@H](CC(C)C)NC(=O)[C@H](CCCCN)NC(=O)[C@@H](N)CC(C)C)[C@@H](C)O)[C@@H](C)O)C(C)C)[C@@H](C)CC)[C@@H](C)CC)C(=O)N[C@@H](C)C(=O)N[C@@H](CO)C(=O)N[C@@H](CC(C)C)C(=O)N[C@@H](C)C(N)=O` [LKLSPETKDTLKKVLKGAIKGAIAIASLA]: the MIC in assay [2] was 5 µM (≈ 14.9 µg/mL); in assay [11], not below 40 µM.

In the case of `CC[C@H](C)[C@H](NC(=O)[C@H](CCCCN)NC(=O)[C@H](CCCN=C(N)N)NC(=O)CNC(=O)[C@H](CC(C)C)NC(=O)[C@H](CCCN=C(N)N)NC(=O)[C@H](CCCN=C(N)N)NC(=O)[C@H](CC(C)C)NC(=O)CNC(=O)CNC(C)=O)C(=O)N[C@@H](CC(C)C)C(=O)N[C@@H](CCCN=C(N)N)C(=O)N[C@@H](C)C(=O)N[C@H](C(=O)N[C@@H](CCCCN)C(=O)N[C@@H](CCCCN)C(=O)N[C@@H](Cc1ccc(O)cc1)C(=O)NCC(N)=O)C(C)C` [GGLRRLGRKILRAVKKYG], the minimal inhibitory concentration (MIC) is 4.42 µM (≈ 9.2 µg/mL) in assay [1], 8.84 µM (≈ 18.4 µg/mL) in assay [13], 8.84 µM (≈ 18.4 µg/mL) in assay [14] and 8.84 µM (≈ 18.4 µg/mL) against Klebsiella pneumoniae.

(Values after DBAASP.)
